We go through three compounds from paper PMC4900628, “Critical Evaluation of P2X7 Receptor Antagonists in Selected Seizure Models” (PLoS ONE, 2016).

Experiment [1] has as its target T1, rat P2X7R (Rattus norvegicus, UniProt Q64663).
T1 construct: expressed in transfected cells; host or cells: HEK293 Flp-In T-REx (HEKrP2X7), tetracycline-induced
T1 sequence (Q64663 1-595): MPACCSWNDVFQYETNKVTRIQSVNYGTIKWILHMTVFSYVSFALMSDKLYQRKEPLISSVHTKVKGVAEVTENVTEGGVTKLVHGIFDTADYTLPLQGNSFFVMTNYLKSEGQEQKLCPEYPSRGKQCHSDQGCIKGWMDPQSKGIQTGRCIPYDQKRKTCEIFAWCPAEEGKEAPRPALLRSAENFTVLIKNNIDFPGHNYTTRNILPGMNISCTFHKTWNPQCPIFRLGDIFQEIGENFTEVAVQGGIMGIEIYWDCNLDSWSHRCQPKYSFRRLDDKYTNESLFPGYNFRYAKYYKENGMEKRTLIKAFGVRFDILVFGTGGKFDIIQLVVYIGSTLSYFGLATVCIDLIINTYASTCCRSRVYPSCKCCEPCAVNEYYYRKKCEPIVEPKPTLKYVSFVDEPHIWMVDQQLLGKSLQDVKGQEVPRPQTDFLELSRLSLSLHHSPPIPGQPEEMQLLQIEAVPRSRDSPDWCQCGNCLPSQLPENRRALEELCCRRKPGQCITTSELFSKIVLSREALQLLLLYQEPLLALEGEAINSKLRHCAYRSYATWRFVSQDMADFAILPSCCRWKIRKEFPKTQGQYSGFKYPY
Put plainly: fluorometric Ca2+ assay (ATP-induced [Ca2+]i response) in HEKrP2X7 cells. It is filed as cell-based. The conditions noted are these: for IC50: HEKrP2X7 cells, fluo-4, 1 mM ATP, read-out: Potency IC50 ± SEM, Rat P2X7R. The protocol: Cells were grown in a humidified incubator at 37°C in an atmosphere supplemented with 5% CO2. […] HEK293mP2X7 were cultured in DMEM under similar conditions as described above, but containing 100 μg/ml zeocin (Invitrogen). […] Expression of the transgene was induced by supplementing the medium with 1 μg/ml tetracycline (Sigma-Aldrich, Taufkirchen, Germany) 24 h prior to the experiments. All fluorometric Ca^2+ assays in cell suspensions were performed in 384-microwell plates (Corning, No. 3655, Lowell, MA, USA) with a fluorescence-imaging microplate reader (POLARstar Omega, BMG Labtech, Offenburg, Germany) (for details, see [61, 68]). […] Microwell plates were repetitively scanned every 16 s in the fast scanning mode of the device. […] Data were normalized to the baseline values before ATP application (F/F0). […] ATP-solution was freshly prepared in Mg^2+-free HBS solution and adjusted to pH 7.4. Aliquots of stock solutions were stored at -20°C and freshly diluted with the appropriate HBS solution. […] Results are expressed as mean ± SEM. […] In the PTZ-T, the number of animals in the group with clonic seizures and the latency time were analysed using Fisher's exact probability test and the Mann-Whitney rank sum test, respectively. For multiple comparisons of the latency time a one-way ANOVA with the Holm-Sidak post hoc test was used. The influence of AFC on the plasma and brain concentrations of the antiepileptic drugs was statistical compared using the same procedure. In the PTZ-kindling model, the mean seizure stage within a group was calculated in relation to the number of PTZ-injections. Statistical comparison between vehicle- and compound-treated groups in this model was performed with two-way repeated measures ANOVA, followed by the Holm-Sidak post hoc test. […] In fully kindled rats, the calculated mean seizure stage within a group after vehicle- and compound-treatment were compared using a paired t-test. P < 0.05 was the accepted minimum level of significance.

Experiment [2] deals with PTZ-induced seizures in fully PTZ-kindled rats. Briefly: PTZ-induced seizures in fully kindled rats. It is filed as in vivo. Particulars: for effect on mean seizure stage in fully kindled rats: TIIAS 30 mg/kg i.p., BBG 50 mg/kg i.p., AFC 25 mg/kg i.p., JNJ 30 mg/kg s.c., acute. From the text:
Results were expressed as mean seizure stages of a tested group in which the seizure behaviour after vehicle treatment (vehicle seizure stage) and after compound treatment (compound seizure stage), examined 3-4 days later, was matched. For comparison, the effectiveness of two antiepileptic drugs (carbamazepine and valproate) was also investigated. […] Chemicals, Toronto, Canada) was slowly added. The pH was adjusted with 1N NaOH (similar amount of NaOH as HCl), all with continuous stirring. […] The drug solutions or suspensions were prepared immediately before use; all doses refer to the salts. Animals in the control group received equivalent volumes of the vehicle (in mice always 10 ml/kg, in rats 1 ml/kg [JNJ], 3 ml/kg [AFC] or 4 ml/kg [BBG, TIIAS], depending on the solubility of the different compounds). Doses and peak time effects were selected on the basis of effective doses from corresponding in vivo studies in the literature: BBG (e.g.), tanshinone IIA (e.g.) and from manufacturer's experimental data: AFC, JNJ (see, [80]). Data were analysed using SigmaPlot (vers. 12.0, Systat Software, Erkrath, Germany) and SPSS (IBM SPSS Statistics 20, […], Germany), respectively. Results are expressed as mean ± SEM. […] In the MES-T, the current intensity inducing tonic hindlimb extensions in 50% of the mice (CC50 values with confidence limits for 95% probability) and the statistical significance was calculated using Probit analysis (SPSS). […] In the PTZ-T, the number of animals in the group with clonic seizures and the latency time were analysed using Fisher's exact probability test and the Mann-Whitney rank sum test, respectively. For multiple comparisons of the latency time a one-way ANOVA with the Holm-Sidak post hoc test was used. The influence of AFC on the plasma and brain concentrations of the antiepileptic drugs was statistical compared using the same procedure. In the PTZ-kindling model, the mean seizure stage within a group was calculated in relation to the number of PTZ-injections. Statistical comparison between vehicle- and compound-treated groups in this model was performed with two-way repeated measures ANOVA, followed by the Holm-Sidak post hoc test. The mean number of PTZ-injections needed to produce the first generalized seizure (≥ stage 3 convulsions) in the vehicle- versus compound-treated groups was statistically compared using a Mann-Whitney rank sum test. In fully kindled rats, the calculated mean seizure stage within a group after vehicle- and compound-treatment were compared using a paired t-test. P < 0.05 was the accepted minimum level of significance.

The structures appear in SMILES notation.

For `CCOc1ccc(Nc2ccc(/C(=C3C=C/C(=[N+](/CC)Cc4cccc(S(=O)(=O)[O-])c4)C=C/3C)c3ccc(N(CC)Cc4cccc(S(=O)(=O)O)c4)cc3C)cc2)cc1` [Brilliant Blue G], the 50% inhibitory concentration (IC50) in experiment [1] stood at 50 ± 10 nM. In experiment [1] (read-out: inhibition of P2X7R / ATP-induced Ca2+ response corresponding to the achieved rat brain concentration), the inhibition at 0.02 µM is around 30%. Further, in experiment [2], the “effect on mean seizure stage in fully kindled rats” value (“effect on mean seizure stage” for short) was “tendency to reduce the mean seizure stage”.
In the case of `O=C(NCC1(N2CCN(c3ccccc3)CC2)CCOCC1)c1cccnc1Sc1ccccc1` [JNJ-47965567, N-[[4-(4-phenyl-piperazin-1-yl)tetrahydro-2H-pyran-4-yl]-methyl]-2-(phenyl-thio) nicotinamide], the IC50 in experiment [1] came to 3 ± 0.1 nM. Further, the “effect on mean seizure stage” value in experiment [2] was “tendency to reduce the mean seizure stage”. For the same compound, in experiment [2] (fully kindled rats, 15 mg/kg s.c., pre-drug (vehicle) value 4.4, significant), the “mean seizure stage, post-drug” value stood at 2.9.
Regarding `Cc1c(S(=O)(=O)[O-])oc2c1C(=O)C(=O)c1c-2ccc2c1CCCC2(C)C.[Na+]` [Tanshinone TIIAS, tanshinone IIS sulfonic sodium], the IC50 in experiment [1] is at least 30000 nM. Besides, in experiment [2], the “effect on mean seizure stage” value is “tendency to reduce the mean seizure stage”.

As a reminder, the IC50 is the midpoint of a concentration-inhibition curve.
